The subject of data set [1] is Staphylococcus aureus. Nature of the data set: Antibacterial activity against methicillin-resistant Staphylococcus aureus. The class given is functional.
Data set [2] in a line: Cytotoxicity against mouse fibroblast cells assessed as cell viability at […] (reference value: 90.23 %). Type of data set: toxicity, cell-based. Also noted: dose or concentration left out as unconfirmed. Particulars: read-out: Activity.
Data set [3] has as its system Candida albicans. Description: Antimicrobial activity against Candida albicans by serial dilution method. Type of data set: functional.
Data set [4] deals with Salmonella typhi. Description: Antimicrobial activity against Salmonella typhi by serial dilution method. Type of data set: functional, Salmonella enterica subsp. enterica serovar Typhi. The conditions noted are these: Salmonella enterica.
Data set [5] concerns Staphylococcus aureus. Nature of the data set: Antimicrobial activity against Staphylococcus aureus by serial dilution method. Type of data set: functional.
The test system of data set [6] is Shigella flexneri. Nature of the data set: Antimicrobial activity against Shigella flexneri by serial dilution method. Type of data set: functional.
The subject of data set [7] is Listeria monocytogenes. Description: Antimicrobial activity against Listeria monocytogenes by serial dilution method. The class given is functional.
In data set [8] the test system is Escherichia coli. Description: Antimicrobial activity against Escherichia coli by serial dilution method. The class given is functional.
Data set [9] has as its system Pseudomonas aeruginosa. Nature of the data set: Antimicrobial activity against Pseudomonas aeruginosa by serial dilution method. The class given is functional.
Data set [10] concerns Bacillus cereus. Nature of the data set: Antimicrobial activity against Bacillus cereus by serial dilution method. The class given is functional.

Structures are written as SMILES. Values after ≈ are worked out from the molar mass of the structure shown.

By MIC is commonly meant the smallest concentration in the dilution series that meets the test's criterion for growth inhibition. On to `CC(=O)/C(=C\c1cn(CC(=O)N2CCCCC2)c2ccccc12)n1c([N+](=O)[O-])cnc1C`, for which the MIC in data set [1] is 1 µg/mL (≈ 2.3 µM).
Regarding `CCOC(=O)C1(C(=O)OCC)C[C@@H](c2c[nH]c3ccccc23)O[C@H]1c1cn(-c2ccccc2)nc1-c1ccccc1`, the viability in data set [2] came to 93.2%.
With `CCOC(=O)C1(C(=O)OCC)C[C@@H](c2c[nH]c3ccc(Cl)cc23)O[C@H]1c1cn(-c2ccccc2)nc1-c1ccc(OC)cc1`, the viability in [2] worked out at 91.4%.
On the same count and under the same terms, the figure for `CCOC(=O)C1(C(=O)OCC)C[C@@H](c2c[nH]c3ccc(Cl)cc23)O[C@H]1c1cn(-c2ccccc2)nc1-c1ccccc1` is 94.3%; for `CCOC(=O)C1(C(=O)OCC)C[C@@H](c2c[nH]c3ccc(Cl)cc23)O[C@H]1c1cn(-c2ccccc2)nc1-c1ccc(C)cc1` it is 97.6%.
In the case of `CCOC(=O)C1(C(=O)OCC)C[C@@H](c2c[nH]c3ccc(C)cc23)O[C@H]1c1cn(-c2ccccc2)nc1-c1ccc(OC)cc1`, the viability in data set [2] stood at 93.5%.
Regarding `CCOC(=O)C1(C(=O)OCC)C[C@@H](c2c[nH]c3ccccc23)O[C@H]1c1cn(-c2ccccc2)nc1-c1ccc(F)cc1`, the viability in data set [2] was found to be 99.1%.
Still for that read-out and setting: the figure for `CCOC(=O)C1(C(=O)OCC)C[C@@H](c2c[nH]c3ccc(Cl)cc23)O[C@H]1c1cn(-c2ccccc2)nc1-c1ccc(Cl)cc1` is 95.2%; for `CCOC(=O)C1(C(=O)OCC)C[C@@H](c2c[nH]c3ccc(F)cc23)O[C@H]1c1cn(-c2ccccc2)nc1-c1ccc(F)cc1` it is 96.2%; for `CCOC(=O)C1(C(=O)OCC)C[C@@H](c2c[nH]c3ccc(F)cc23)O[C@H]1c1cn(-c2ccccc2)nc1-c1ccccc1` it is 95.7%.
Regarding `CCOC(=O)C1(C(=O)OCC)C[C@@H](c2c[nH]c3ccccc23)O[C@@H]1c1cn(-c2ccccc2)nc1-c1ccc(Cl)cc1`, the MIC came to 12.5 µg/mL (≈ 21.4 µM) in data set [3]; 6.25 µg/mL (≈ 10.7 µM) in data set [4]; 6.25 µg/mL (≈ 10.7 µM) in data set [5]; 12.5 µg/mL (≈ 21.4 µM) in data set [6]; 12.5 µg/mL (≈ 21.4 µM) in [7]; 6.25 µg/mL (≈ 10.7 µM) in data set [8]. For the same molecule, the MIC in data set [9] is 3.12 µg/mL (≈ 5.35 µM); in [10], 6.25 µg/mL (≈ 10.7 µM).
Regarding `CCOC(=O)C1(C(=O)OCC)C[C@@H](c2c[nH]c3ccc(C)cc23)O[C@H]1c1cn(-c2ccccc2)nc1-c1ccccc1`, in [2], the viability came out at 92.3%.
Turning to `CCOC(=O)C1(C(=O)OCC)C[C@@H](c2c[nH]c3ccccc23)O[C@H]1c1cn(-c2ccccc2)nc1-c1ccc(Cl)cc1`, the MIC in [3] was 12.5 µg/mL (≈ 21.4 µM); in data set [4] it was 1.56 µg/mL (≈ 2.67 µM); in data set [5], 1.56 µg/mL (≈ 2.67 µM); in [6] it was 6.25 µg/mL (≈ 10.7 µM); in [7], 1.56 µg/mL (≈ 2.67 µM); in [8], 3.12 µg/mL (≈ 5.35 µM). Further, the MIC in data set [9] and in data set [10] was 1.56 µg/mL (≈ 2.67 µM) in each case. In data set [2], the viability is 98.1%.
Take `CCOC(=O)C1(C(=O)OCC)C[C@@H](c2c[nH]c3ccc(OC)cc23)O[C@H]1c1cn(-c2ccccc2)nc1-c1ccc(Cl)cc1`: the viability in data set [2] amounted to 88.8%.
Regarding `CCOC(=O)C1(C(=O)OCC)C[C@@H](c2c[nH]c3ccc(F)cc23)O[C@H]1c1cn(-c2ccccc2)nc1-c1ccc(C)cc1`, in data set [2], the viability was determined as 96.5%.
Consider `CCOC(=O)C1(C(=O)OCC)C[C@@H](c2c[nH]c3ccc(OC)cc23)O[C@H]1c1cn(-c2ccccc2)nc1-c1ccc(F)cc1`, for which, in data set [2], the viability was determined as 94.8%.
The same measure, in the same setting: the figure for `CCOC(=O)C1(C(=O)OCC)C[C@@H](c2c[nH]c3ccc(OC)cc23)O[C@H]1c1cn(-c2ccccc2)nc1-c1ccc(C)cc1` is 88.9%; for `CCOC(=O)C1(C(=O)OCC)C[C@@H](c2c[nH]c3ccccc23)O[C@H]1c1cn(-c2ccccc2)nc1-c1ccc(C)cc1` it is 95.3%; for `CCOC(=O)C1(C(=O)OCC)C[C@@H](c2c[nH]c3ccccc23)O[C@H]1c1cn(-c2ccccc2)nc1-c1ccc(OC)cc1` it is 94.3%.
Regarding `CCOC(=O)C1(C(=O)OCC)C[C@@H](c2c[nH]c3ccc(F)cc23)O[C@H]1c1cn(-c2ccccc2)nc1-c1ccc(OC)cc1`, the viability in [2] is 94.6%.
Regarding `CCOC(=O)C1(C(=O)OCC)C[C@@H](c2c[nH]c3ccc(C)cc23)O[C@H]1c1cn(-c2ccccc2)nc1-c1ccc(F)cc1`, the viability in data set [2] was 99.2%.
Still for that read-out and setting: the figure for `CCOC(=O)C1(C(=O)OCC)C[C@@H](c2c[nH]c3ccc(C)cc23)O[C@H]1c1cn(-c2ccccc2)nc1-c1ccc(C)cc1` is 94.2%; for `CCOC(=O)C1(C(=O)OCC)C[C@@H](c2c[nH]c3ccc(OC)cc23)O[C@H]1c1cn(-c2ccccc2)nc1-c1ccccc1` it is 90.1%.
Still for that read-out and setting: the figure for `CCOC(=O)C1(C(=O)OCC)C[C@@H](c2c[nH]c3ccc(F)cc23)O[C@H]1c1cn(-c2ccccc2)nc1-c1ccc(Cl)cc1` is 99.1%.
On the same count and under the same terms, the figure for `CCOC(=O)C1(C(=O)OCC)C[C@@H](c2c[nH]c3ccc(Cl)cc23)O[C@H]1c1cn(-c2ccccc2)nc1-c1ccc(F)cc1` is 90.5%.
As for `CCOC(=O)C1(C(=O)OCC)C[C@@H](c2c[nH]c3ccc(OC)cc23)O[C@H]1c1cn(-c2ccccc2)nc1-c1ccc(OC)cc1`, in [2], the viability came out at 90.1%.
For the molecule `CCOC(=O)C1(C(=O)OCC)C[C@@H](c2c[nH]c3ccc(C)cc23)O[C@H]1c1cn(-c2ccccc2)nc1-c1ccc(Cl)cc1`, the viability in data set [2] came out at 92.3%.
The molecule `Clc1cccc(-n2nc(C3CCNCC3)cc2/C=C/c2c[nH]c3ccc(Cl)cc23)c1` returned an MIC in [1] of 1 µg/mL (≈ 2.29 µM).
Regarding `CC1(C)S[C@@H]2[C@H](NC(=O)[C@H](N)c3ccc(O)cc3)C(=O)N2[C@H]1C(=O)O` [AMOXICILLIN], the MIC stood at 6.25 µg/mL (≈ 17.1 µM) in data set [3]; 3.12 µg/mL (≈ 8.55 µM) in data set [4]; 3.12 µg/mL (≈ 8.55 µM) in data set [5]; 3.12 µg/mL (≈ 8.55 µM) in data set [6]; 3.12 µg/mL (≈ 8.55 µM) in data set [7]; 3.12 µg/mL (≈ 8.55 µM) in [8]. Moreover, the MIC in data set [9] and in data set [10] was 3.12 µg/mL (≈ 8.55 µM) each time.
With `OC(Cn1cncn1)(Cn1cncn1)c1ccc(F)cc1F` [FLUCONAZOLE], in data set [3], the minimal inhibitory concentration (MIC) stood at 6.25 µg/mL (≈ 20.4 µM).

For the origin of these results see ChEMBL document CHEMBL6083266, “Diastereomeric pure pyrazolyl-indolyl dihydrofurans: Unveiling isomeric selectivity in antibacterial action via in vitro and in silico insights” (Bioorg Med Chem Lett, 2024).
